Source: ChEMBL document CHEMBL5614376, “Discovery of MT-1207: A Novel, Potent Multitarget Inhibitor as a Promising Clinical Candidate for the Treatment of Hypertension” (J Med Chem, 2024)

Assays:
[1] = Metabolic stability in human liver microsomes assessed as drug elimination at 10 umol/L incubated for 5 mins in presence of NADPH by LC-MS/MS analysis; assay type: ADME, Microsome; settings: 10 µM, dose 10 µmol/L
[2] = target: 5-hydroxytryptamine receptor 2A (Homo sapiens, UniProt P28223); assay: Displacement of [3H]Ketanserin from recombinant human 5-HT2A receptor extracted from CHO cell membrane at 10 nM incubated for 60 mins by radioligand binding assay relative to control; assay type: cell membranes; settings: filed as antagonist
5-hydroxytryptamine receptor 2A, sequence (P28223 whole entry): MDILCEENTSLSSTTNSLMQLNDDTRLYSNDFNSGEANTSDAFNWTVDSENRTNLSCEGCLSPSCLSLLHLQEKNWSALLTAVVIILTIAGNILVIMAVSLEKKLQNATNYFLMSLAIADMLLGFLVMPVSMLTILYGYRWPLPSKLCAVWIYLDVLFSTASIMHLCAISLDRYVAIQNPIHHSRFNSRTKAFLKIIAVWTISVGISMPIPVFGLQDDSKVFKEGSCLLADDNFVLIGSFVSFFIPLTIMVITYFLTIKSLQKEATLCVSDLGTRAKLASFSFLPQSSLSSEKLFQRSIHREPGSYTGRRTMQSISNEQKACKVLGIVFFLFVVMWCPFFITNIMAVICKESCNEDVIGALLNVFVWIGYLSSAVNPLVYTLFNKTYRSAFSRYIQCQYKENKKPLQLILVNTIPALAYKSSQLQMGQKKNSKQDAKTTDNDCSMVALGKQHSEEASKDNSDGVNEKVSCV

[3] = Plasma protein binding in Beagle dog at 1 uM incubated for 30 mins; assay type: ADME, cell-free, Canis lupus familiaris; settings: read-out: PPB (converted)
[4] = Plasma protein binding in Cynomolgus monkey at 0.1 uM incubated for 30 mins; assay type: ADME, cell-free, Macaca fascicularis; settings: read-out: PPB (converted)
[5] = Metabolic stability in rat liver microsomes assessed as drug metabolism at 10 umol/L incubated upto 120 mins in presence of NADPH by LC-MS/MS analysis; assay type: ADME, Microsome; settings: 2 h, 10 µM, dose 10 µmol/L
[6] = Metabolic stability in macaque liver microsomes assessed as drug metabolism at 10 umol/L incubated upto 120 mins in presence of NADPH by LC-MS/MS analysis; assay type: ADME, Microsome; settings: macaca, 2 h, 10 µM, dose 10 µmol/L
[7] = Metabolic stability in macaque liver microsomes assessed as drug elimination at 10 umol/L incubated for 5 mins in presence of NADPH by LC-MS/MS analysis; assay type: ADME, Microsome; settings: macaca, 10 µM, dose 10 µmol/L
[8] = Metabolic stability in Beagle dog liver microsomes assessed as compound remaining at 10 umol/L incubated upto 120 mins in presence of NADPH by LC-MS/MS analysis; assay type: ADME, Canis lupus familiaris, Microsome; settings: dose 10 µmol/L, read-out: Stability
[9] = Half life in Sprague-Dawley rat at 1 mg/kg, iv measured for 24 hrs by UPLC/MS/MS analysis; assay type: ADME, organism-based; settings: in vivo
[10] = Cmax in Sprague-Dawley rat at 1 mg/kg, iv measured for 24 hrs by UPLC/MS/MS analysis; assay type: ADME, organism-based; settings: in vivo
[11] = AUC (0 to t) in Sprague-Dawley rat at 1 mg/kg, iv measured for 24 hrs by UPLC/MS/MS analysis; assay type: ADME, organism-based; settings: in vivo
[12] = Apparent volume of distribution during terminal phase in Sprague-Dawley rat at 1 mg/kg, iv measured for 24 hrs by UPLC/MS/MS analysis; assay type: ADME, organism-based; settings: in vivo
[13] = Apparent oral clearance in Sprague-Dawley rat at 1 mg/kg, iv measured for 24 hrs by UPLC/MS/MS analysis; assay type: ADME, organism-based; settings: in vivo
[14] = Oral bioavailability in Sprague-Dawley rat at 1 mg/kg measured for 24 hrs by UPLC/MS/MS analysis; assay type: ADME, organism-based; settings: in vivo
[15] = Apparent oral clearance in Sprague-Dawley rat at 3 mg/kg, po measured for 24 hrs by UPLC/MS/MS analysis; assay type: ADME, organism-based; settings: in vivo
[16] = Oral bioavailability in Sprague-Dawley rat at 3 mg/kg measured for 24 hrs by UPLC/MS/MS analysis; assay type: ADME, organism-based; settings: in vivo
[17] = Half life in Sprague-Dawley rat at 9 mg/kg, po measured for 24 hrs by UPLC/MS/MS analysis; assay type: ADME, organism-based; settings: in vivo
[18] = Oral bioavailability in Sprague-Dawley rat at 9 mg/kg measured for 24 hrs by UPLC/MS/MS analysis; assay type: ADME, organism-based; settings: in vivo
Rattus norvegicus [19] = assay: Antihypertensive activity in 2K2C renovascular hypertensive Sprague-Dawley rat model assessed as systolic blood pressure at 10 mg/kg, po measured after 9 weeks (Rvb ~ 202 mmHg); assay type: functional
Rattus norvegicus [20] = assay: Effect on postural hypotension in Sprague-Dawley rat assessed as change in systolic blood pressure at 2.5 mg/kg, po treated for >30 mins followed by induction of postural hypotension measured 20 secs after postural change (reference value: 129 +/- 11 mmHg); assay type: functional; settings: time > 30.33 min, 0.5055 h
Rattus norvegicus [21] = assay: Effect on postural hypotension in Sprague-Dawley rat assessed as change in systolic blood pressure at 2.5 mg/kg, po treated for >30 mins followed by induction of postural hypotension measured 40 secs after postural change (reference value: 128 +/- 11 mmHg); assay type: functional; settings: time > 30.67 min, 0.5112 h
Rattus norvegicus [22] = assay: Effect on postural hypotension in Sprague-Dawley rat assessed as change in systolic blood pressure at 2.5 mg/kg, po treated for >30 mins followed by induction of postural hypotension measured 60 secs after postural change (reference value: 127 +/- 10 mmHg); assay type: functional; settings: time > 31 min
Rattus norvegicus [23] = assay: Effect on postural hypotension in Sprague-Dawley rat assessed as change in systolic blood pressure at 10 mg/kg, po treated for >30 mins followed by induction of postural hypotension measured 60 secs after postural change (reference value: 127 +/- 10 mmHg); assay type: functional; settings: time > 31 min
[24] = Acute toxicity in Sprague-Dawley rat assessed as unscheduled animal fatality at 250 to 1000 mg/kg, po single administration measured for 14 days; assay type: organism-based; settings: in vivo, 336 h, dose 250-1000 mg/kg, time 14 day
[25] = Acute toxicity in Sprague-Dawley rat assessed as change in body weight at 250 to 1000 mg/kg, po single administration measured for 14 days; assay type: organism-based; settings: in vivo, 336 h, dose 250-1000 mg/kg, time 14 day
[26] = Acute toxicity in Sprague-Dawley rat assessed as drug tolerance at 250 to 1000 mg/kg, po single administration measured for 14 days; assay type: organism-based; settings: in vivo, 336 h, dose 250-1000 mg/kg, time 14 day
[27] = Toxicity in Sprague-Dawley rat assessed as unplanned animal mortality at 10 to 100 mg/kg, po qd treated for 13 weeks consecutively measured after 4 week recovery period; assay type: organism-based; settings: in vivo, 2856 h, dose 10-100 mg/kg, time 17 weeks
[28] = Toxicity in male Sprague-Dawley rat assessed as reduction in body weight at 100 mg/kg, po qd treated for 4 days consecutively; assay type: organism-based; design: scale not given: the % may be the effect or the level left; settings: in vivo, 96 h, time 4 day
[29] = Toxicity in Sprague-Dawley rat assessed as change in body weight at 100 mg/kg, po qd treated for 13 weeks consecutively measured post-cessation of treatment; assay type: organism-based; settings: in vivo, 2184 h
[30] = Tmax in female Sprague-Dawley rat at 100 mg/kg, po measured on day 1 by UP/LC/MS/MS analysis; assay type: ADME, organism-based; settings: in vivo, time 1 day
[31] = Cmax in female Sprague-Dawley rat at 10 mg/kg, po measured on day 1 by UP/LC/MS/MS analysis; assay type: ADME, organism-based; settings: in vivo, time 1 day
[32] = Cmax in male Sprague-Dawley rat at 30 mg/kg, po measured on day 1 by UP/LC/MS/MS analysis; assay type: ADME, organism-based; settings: in vivo, time 1 day
[33] = Cmax in female Sprague-Dawley rat at 30 mg/kg, po measured on day 1 by UP/LC/MS/MS analysis; assay type: ADME, organism-based; settings: in vivo, time 1 day
[34] = Cmax in female Sprague-Dawley rat at 100 mg/kg, po measured on day 1 by UP/LC/MS/MS analysis; assay type: ADME, organism-based; settings: in vivo, time 1 day
[35] = AUC (0 to t) in male Sprague-Dawley rat at 100 mg/kg, po measured on day 1 by UP/LC/MS/MS analysis; assay type: ADME, organism-based; settings: in vivo, time 1 day
[36] = Tmax in female Sprague-Dawley rat at 100 mg/kg, po qd treated for 13 weeks consecutively measured after recovery period on day 91 by UP/LC/MS/MS analysis; assay type: ADME, organism-based; settings: in vivo, time 91 day
[37] = Cmax in male Sprague-Dawley rat at 100 mg/kg, po qd treated for 13 weeks consecutively measured after recovery period on day 91 by UP/LC/MS/MS analysis; assay type: ADME, organism-based; settings: in vivo, time 91 day

**Q.** For `Cl.c1ccc2c(c1)nnn2CCCCN1CCN(c2nsc3ccccc23)CC1`, which Drug excretion [1] is on record?
**A.** Active

**Q.** What about the inhibition [2] of the same compound?
**A.** 96%

**Q.** And the fraction unbound at 0.5 h, 1 µM [3]?
**A.** 0.006

**Q.** And the fraction unbound at 0.5 h, 0.1 µM [4]?
**A.** 0.015

**Q.** What about the Drug metabolism [5] of the same compound?
**A.** Metabolite_Detected

**Q.** What about the Drug metabolism [6] of the same compound?
**A.** Metabolite_Detected

**Q.** And the Drug excretion [7]?
**A.** Active

**Q.** What about the remaining at 2 h, 10 µM [8] of the same compound?
**A.** 6.04%

**Q.** And the half-life [9]?
**A.** 1.3 h

**Q.** What about the Cmax [10] of the same compound?
**A.** 0.468 µg/mL

**Q.** What about the AUC(0-t) at 24 h [11] of the same compound?
**A.** 0.44 µg·h/mL

**Q.** And the Vz/F [12]?
**A.** 4.5 L

**Q.** And the CL/F [13]?
**A.** 25 L/h

**Q.** What about the bioavailability [14] of the same compound?
**A.** 11.7%

**Q.** And the CL/F [15]?
**A.** 130 mL/min

**Q.** And the bioavailability [16]?
**A.** 31.9%

**Q.** What about the half-life [17] of the same compound?
**A.** 1.89 h

**Q.** What about the bioavailability [18] of the same compound?
**A.** 15.3%

**Q.** And the Activity (Rattus norvegicus [19])?
**A.** 169 mmHg

**Q.** And the Activity (Rattus norvegicus [20])?
**A.** 91 mmHg

**Q.** And the Activity (Rattus norvegicus [21])?
**A.** 92 mmHg

**Q.** And the Activity (Rattus norvegicus [22])?
**A.** 93 mmHg

**Q.** What about the Activity (Rattus norvegicus [23]) of the same compound?
**A.** 85 mmHg

**Q.** What about the Activity [24] of the same compound?
**A.** Non-Toxic

**Q.** What about the Activity [25] of the same compound?
**A.** Non-Toxic

**Q.** And the Activity [26]?
**A.** Non-Toxic

**Q.** And the Activity [27]?
**A.** Non-Toxic

**Q.** And the Activity [28]?
**A.** ~ 5.4%

**Q.** And the Activity [29]?
**A.** Non-Toxic

**Q.** What about the Tmax [30] of the same compound?
**A.** 2 h

**Q.** And the Cmax [31]?
**A.** 0.0887 µg/mL

**Q.** What about the Cmax [32] of the same compound?
**A.** 0.109 µg/mL

**Q.** And the Cmax [33]?
**A.** 0.408 µg/mL

**Q.** And the Cmax [34]?
**A.** 1.08 µg/mL

**Q.** What about the AUC(0-t) at 24 h [35] of the same compound?
**A.** 1.46 µg·h/mL

**Q.** What about the Tmax [36] of the same compound?
**A.** 2.5 h

**Q.** And the Cmax [37]?
**A.** 0.538 µg/mL
